Measured values reported in ChEMBL document CHEMBL1201862, “PubChem BioAssay data set” (2004).
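Each compound was tested at five concentrations against cells in 96-well plates for 48 hours. At the GI50, growth is halved.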 The source made the active and inactive calls. Cut-off read from the data, not from the text of the source: active = GI50 up to about 1.1 µM and inactive = higher.

How the values were obtained:
Experiment in all cases: NCI anticancer screen, dose series, 48 h
A549 = tested on: A549
CAKI-1 = tested on: CAKI-1
CCRF-CEM = tested on: CCRF-CEM
HCC 2998 = tested on: HCC 2998
Hs-578T = tested on: Hs-578T
K562 = tested on: K562
MDA-MB-231 = tested on: MDA-MB-231
Malme-3M = tested on: Malme-3M
NCI-H226 = tested on: NCI-H226
NCI-H460 = tested on: NCI-H460
NCI/ADR-RES = tested on: NCI/ADR-RES
OVCAR-3 = tested on: OVCAR-3
OVCAR-8 = tested on: OVCAR-8
SK-MEL-5 = tested on: SK-MEL-5
SK-OV-3 = tested on: SK-OV-3
SN12C = tested on: SN12C
TK-10 = tested on: TK-10
U-251 = tested on: U-251
A498 = tested on: A498

Measured: GI50

Cn1cc(S(=O)(=O)NC(=O)Nc2ccc(Cl)cc2)c(=O)c2ccc(Cl)cc21
inactive: A549 > 100 µM | CAKI-1 > 100 µM | CCRF-CEM 92.9 µM | HCC 2998 85.3 µM | Hs-578T 72.1 µM | K562 47.1 µM | MDA-MB-231 > 100 µM | Malme-3M > 100 µM | NCI-H226 75 µM | NCI-H460 > 100 µM | NCI/ADR-RES 38 µM | OVCAR-3 > 100 µM | OVCAR-8 > 100 µM | SK-MEL-5 > 100 µM | SK-OV-3 > 100 µM | SN12C 99.3 µM | TK-10 > 100 µM | U-251 93.1 µM

Cc1c2c(C#N)nccc2c(C)c2c1c1ccccc1n2Cc1ccccc1
inactive: A549 > 100 µM | CAKI-1 > 100 µM | CCRF-CEM > 100 µM | HCC 2998 > 100 µM | Hs-578T 88.5 µM | K562 > 100 µM | MDA-MB-231 > 100 µM | Malme-3M > 100 µM | NCI-H226 > 100 µM | NCI-H460 > 100 µM | NCI/ADR-RES > 100 µM | OVCAR-3 > 100 µM | OVCAR-8 > 100 µM | SK-MEL-5 > 100 µM | SK-OV-3 > 100 µM | SN12C > 100 µM | TK-10 > 100 µM | U-251 > 100 µM

CCOC(=O)Nc1ccc(S(=O)(=O)Nc2ccc(Br)cc2)cc1
inactive: A498 13.6 µM | A549 60.1 µM | CAKI-1 35.8 µM | CCRF-CEM 46.8 µM | Hs-578T 30.6 µM | K562 17.3 µM | MDA-MB-231 29.7 µM | Malme-3M 74 µM | NCI-H460 23.2 µM | NCI/ADR-RES 34.4 µM | OVCAR-3 36.3 µM | OVCAR-8 23.3 µM | SK-MEL-5 18.5 µM | SK-OV-3 25.9 µM | SN12C 59.8 µM | TK-10 43.1 µM | U-251 43 µM

CSc1ncc2c(n1)-c1ccccc1OC2N1CCOCC1 (centres undefined)
inactive: A498 21.3 µM | A549 97.7 µM | CAKI-1 50.8 µM | CCRF-CEM 47.1 µM | Hs-578T 61.2 µM | K562 56.1 µM | MDA-MB-231 83.9 µM | NCI-H226 85.7 µM | NCI-H460 41.5 µM | NCI/ADR-RES 57.1 µM | OVCAR-3 56.2 µM | OVCAR-8 > 100 µM | SK-MEL-5 40.4 µM | SK-OV-3 > 100 µM | SN12C 50 µM | TK-10 43.3 µM | U-251 > 100 µM

Cc1ccc(/C=C2\NC(=S)NC2=O)cc1
inactive: A549 > 100 µM | CAKI-1 > 100 µM | CCRF-CEM > 100 µM | HCC 2998 > 100 µM | Hs-578T > 100 µM | K562 > 100 µM | MDA-MB-231 > 100 µM | Malme-3M > 100 µM | NCI-H226 > 100 µM | NCI/ADR-RES > 100 µM | OVCAR-3 > 100 µM | OVCAR-8 > 100 µM | SK-MEL-5 > 100 µM | SK-OV-3 > 100 µM | SN12C > 100 µM | TK-10 > 100 µM | U-251 > 100 µM

O=S(=O)(O)c1c(/N=N/c2c(O)ccc3ccccc23)ccc2ccccc12
inactive: A498 > 100 µM | A549 > 100 µM | CAKI-1 > 100 µM | CCRF-CEM 48.4 µM | Hs-578T > 100 µM | K562 > 100 µM | MDA-MB-231 > 100 µM | Malme-3M 55.1 µM | NCI-H226 19.4 µM | NCI/ADR-RES > 100 µM | OVCAR-3 > 100 µM | OVCAR-8 > 100 µM | SK-MEL-5 > 100 µM | SK-OV-3 79.8 µM | SN12C > 100 µM | TK-10 > 100 µM | U-251 > 100 µM

N=c1oc2ccccc2cc1-c1nc2ccccc2c(=O)[nH]1
inactive: A549 78.3 µM | CAKI-1 > 100 µM | CCRF-CEM 79.4 µM | HCC 2998 90.2 µM | Hs-578T 23.2 µM | K562 > 100 µM | MDA-MB-231 29.3 µM | Malme-3M 60.8 µM | NCI-H226 29.7 µM | NCI-H460 64.7 µM | NCI/ADR-RES 72.6 µM | OVCAR-8 60.3 µM | SK-MEL-5 > 100 µM | SK-OV-3 > 100 µM | SN12C > 100 µM | TK-10 35.3 µM | U-251 32 µM

C=CCNC(=O)NC(=O)CSC1=NC(=O)C2(NN1)c1ccccc1-c1ccccc12
inactive: A549 > 10 µM | CAKI-1 > 10 µM | CCRF-CEM > 10 µM | HCC 2998 > 10 µM | Hs-578T 9.51 µM | K562 > 10 µM | MDA-MB-231 > 10 µM | Malme-3M > 10 µM | NCI-H226 > 10 µM | NCI-H460 > 10 µM | NCI/ADR-RES > 10 µM | OVCAR-8 > 10 µM | SK-MEL-5 > 10 µM | SK-OV-3 > 10 µM | SN12C > 10 µM | TK-10 > 10 µM

O=C(Nc1ccn(C2CC(O)C(CO)O2)c(=O)n1)c1ccccc1 (centres undefined)
inactive: A498 > 100 µM | A549 > 100 µM | CAKI-1 > 100 µM | CCRF-CEM > 100 µM | Hs-578T > 100 µM | K562 > 100 µM | MDA-MB-231 > 100 µM | NCI-H226 > 100 µM | NCI-H460 > 100 µM | NCI/ADR-RES > 100 µM | OVCAR-3 > 100 µM | OVCAR-8 > 100 µM | SK-MEL-5 > 100 µM | SK-OV-3 > 100 µM | SN12C > 100 µM | TK-10 > 100 µM | U-251 > 100 µM

O=c1c2cc([N+](=O)[O-])cnc2sn1-c1ccc(Br)cc1
inactive: A549 42.3 µM | CCRF-CEM 22.9 µM | HCC 2998 91 µM | Hs-578T 23.7 µM | MDA-MB-231 28.3 µM | Malme-3M 19.1 µM | NCI-H226 73.6 µM | NCI-H460 66.8 µM | NCI/ADR-RES 33.9 µM | OVCAR-3 22.4 µM | OVCAR-8 > 100 µM | SK-MEL-5 > 100 µM | SK-OV-3 14.8 µM | SN12C 72.6 µM | TK-10 > 100 µM | U-251 34.4 µM

O=C(O)c1cc2cc(c1)/N=C/c1ccccc1OCc1cccc(n1)COc1ccccc1/C=N/2
inactive: A498 > 25 µM | A549 > 25 µM | CCRF-CEM 9.71 µM | Hs-578T 4.94 µM | K562 10.1 µM | MDA-MB-231 > 25 µM | Malme-3M 3.64 µM | NCI-H226 10.9 µM | NCI-H460 > 25 µM | NCI/ADR-RES 5.93 µM | OVCAR-3 5.11 µM | OVCAR-8 > 25 µM | SK-OV-3 > 25 µM | SN12C 14.8 µM | TK-10 13.6 µM | U-251 7.66 µM

CC(=O)N1CCN(C23OC4(N5CCN(C(C)=O)CC5)C5C6CC(C7C6C4C72)C53)CC1 (centres undefined)
inactive: A549 > 100 µM | CAKI-1 > 100 µM | CCRF-CEM > 100 µM | HCC 2998 > 100 µM | Hs-578T > 100 µM | K562 > 100 µM | MDA-MB-231 > 100 µM | Malme-3M > 100 µM | NCI-H226 > 100 µM | NCI-H460 > 100 µM | NCI/ADR-RES > 100 µM | OVCAR-3 > 100 µM | OVCAR-8 > 100 µM | SK-MEL-5 > 100 µM | SK-OV-3 > 100 µM | SN12C > 100 µM | TK-10 > 100 µM | U-251 > 100 µM
